In brackets after ≈: the same amount, converted by molar mass.
How the values were obtained:
[1] = system: Escherichia coli NCTC 8196; assay: MIC, two-fold microdilution (EUCAST), E. coli reference strain; type: cell-based; conditions: Escherichia coli, NCTC8196, 18 h, read-out: MIC (µM) Escherichia coli NCTC 8196
Excerpt: (§1) A panel of reference bacteria, including Escherichia coli NCTC 8196, Staphylococcus aureus ATCC 6538, Klebsiella pneumoniae ATCC 13883, and Pseudomonas aeruginosa NCTC 6749, was used to assess the antibacterial activity of the nine tested aziridine phosphines (1–4) and aziridine phosphine oxides (5–9). The two-fold microdilution method, following EUCAST guidelines, was used to determine a minimal inhibitory concentration (MIC) of each compound, as presented in Table S1.
(§2) Antibacterial activity: The in vitro antibacterial activity of nine tested aziridine phosphines (1–4) and aziridine phosphine oxides (5–9) was evaluated against reference bacterial strains (E. coli NCTC 8196, S. aureus ATCC 6538, K. pneumoniae ATCC 13883, P. aeruginosa NCTC 6749) and 12 S. aureus clinical isolates, including two methicillin-resistant isolates (MRSA, D15 and D17) obtained from infected patients hospitalized at the Oncological Hospital in Lodz (Poland). All strains were kept frozen at −80 °C in Tryptic Soy Broth with 15% glycerol. The minimal inhibitory concentration (MIC) is defined as the lowest concentration of the compound that prevents visible growth of bacteria using the microdilution method followed the EUCAST guidelines. Each compound was added to 96-well microplates in two-fold dilutions at concentrations from 3.125 to 100 μM in Mueller–Hinton broth. […] Bacterial culture was added into wells at a density of 5 × 10^5 CFU mL^−1, and plates were incubated at 37 °C for 18 h. As a positive control, an untreated bacterial culture was used, and a clear culture medium served as a negative control. The optical density at OD600 was measured using the SpectraMax i3 Multi-Mode Platform (Molecular Devices, San Jose, CA, USA). Ciprofloxacin hydrochloride (CIP, Sigma-Aldrich, Darmstadt, Germany) was used as a reference antimicrobial drug.

[2] = system: clinical S. aureus strains; assay: MIC, microdilution, 12 clinical S. aureus strains; type: cell-based, Staphylococcus aureus; conditions: panel of 12 clinical isolates (naso-pharynx, ulcers/furuncles, bones), highest tested concentration 100 µM
Excerpt: as §1, §2

HeLa cells = assay: Intracellular ROS measurement (H2DCFDA, flow cytometry); type: cell-based, human; conditions: 24 h, concentration equal to IC50, H2DCFDA staining
Protocol: The intracellular ROS levels were evaluated using 2′,7′-dichlorofluorescein diacetate (H2DCFDA) staining. This cell membrane-permeable probe is deacetylated by cellular esterases to a non-fluorescent compound, which is then oxidized by ROS to 2′,7′-dichlorofluorescein (DCF), which remains in cells, is not removed from them, and emits strong fluorescence that can be quantified using a flow cytometer. To evaluate oxidative stress, HeLa cells were treated with the respective compound at a concentration equal to its IC50 value for 24 h, followed by staining with H2DCFDA. […]
Figure 5 Intracellular ROS generation in HeLa cells after treatment with 5 (blue) and 7 (green) for 24 h at 37 °C and 5% CO2. […] Oxidative stress was evaluated using H2DCFDA by flow cytometry. Data are expressed as the mean ± SD of two experiments. Statistical significance in comparison with the untreated control, measured by two-way analysis of variance (ANOVA) followed by Bonferroni multiple comparison test, is indicated by asterisks: (*) p < 0.05.
Reactive oxygen species measurement: The intracellular level of ROS was analysed by staining with 2′,7′–dichlorofluorescein diacetate (H2DCFDA, Sigma-Aldrich, Darmstadt, Germany). […] This product is highly fluorescent and can be detected on a flow cytometer. […]

L929 cells = assay: cells; type: cell-based, murine; conditions: Mus musculus, L929, 24 h, read-out: IC50 (µM) L929
Protocol: Considering our previous research and the literature reports on the antitumor activity of aziridine derivatives, aziridine phosphines (1–4) and aziridine phosphine oxides (5–9) were tested to investigate their potential anticancer activity. The in vitro effects on cell viability were assessed using the 3-(4,5-dimethylthiazol-2-yl)-2,5-diphenyltetrazolium bromide (MTT) assay on non-tumorigenic murine fibroblasts (L929) as well as two cancer cell lines: human cervical epithelioid carcinoma (HeLa) cells and endometrial adenocarcinoma (Ishikawa) cells.
Cell viability inhibition: The in vitro effects on cell viability were determined using the 3-(4,5-dimethylthiazol-2-yl)-2,5-diphenyltetrazolium bromide (MTT) assay on non-tumorigenic murine fibroblasts L929 (ATTC®—CCL-1) as well as two cancer cell lines: human cervical epithelioid carcinoma HeLa cells (ATTC®—CCL-2™) and endometrial adenocarcinoma Ishikawa cells (ECACC 99040201). Cells were cultured on 96-well microplates at a density of 1 × 10^4 cells/well following the international in Dulbecco’s Modified Eagle’s Medium (DMEM, Biowest) supplemented with 10% fetal bovine serum (FBS, Biowest, Nuaillé, France), 100 U/mL of penicillin, and 100 μg/mL of streptomycin (Biowest, Nuaillé, France). After overnight incubation at 37 °C and 5% CO2, the growth medium was removed and 100 μL of fresh media with two-fold dilutions of the tested compounds at concentrations of 3.125–100 μM were added. […] Untreated cells in medium were used as a positive control, while a clear culture medium served as a negative control.

SMILES | MIC [1] [µM] | MIC ([2]; Staphylococcus aureus) [µM] | MIC [2] [µM] | intracellular ROS levels compared to untreated control (HeLa cells) | IC50 (L929 cells) [µM]
CC(C)[C@@H]1CN1c1ccccc1P(=O)(c1ccccc1)c1ccccc1 [Compound 5] | > 100 | 100 (≈ 36.1 µg/mL) | 100 (≈ 36.1 µg/mL) | the effect was significant only for 5 | 10.6 ± 3.2
CC(C)C[C@H]1CN1c1ccccc1P(=O)(c1ccccc1)c1ccccc1 [Compound 7] | > 100 | 100 (≈ 37.5 µg/mL) | 100 (≈ 37.5 µg/mL) | increase in ROS levels | 17.5 ± 2.1
